O=C(O)c1ccc(C(=O)O)cc1
solubility (mole fraction)
Conditions	303.2 K	313.2 K	323.2 K	333.2 K	343.2 K	353.2 K	363.2 K
in DMAc	0.016	0.0211	0.0269	0.0331	0.0385	0.0452	0.0524
in NMP	0.0133	0.0155	0.0188	0.0216	0.0256	0.0287	0.0328

— BigSolDB 2.1
